Measurements as given in ChEMBL document CHEMBL1141372, “Synthesis and pharmacophore modeling of naphthoquinone derivatives with cytotoxic activity in human promyelocytic leukemia HL-60 cell line” (J Med Chem, 2007).

Columns and labels:
[1] = Partition coefficient, log P of the compound; type: physicochemical; settings: octanol/water
HL-60 = assay: Cytotoxicity against human promyelocytic leukemia HL60 cell line by MTT assay; type: cell-based

| logP ([1]; read-out: LogP) | logP [1] | SMILES | IC50 (HL-60) [µM] |
| --- | --- | --- | --- |
| 3.2 |  | CC1(C)Oc2c(c3nccnc3c3ccccc23)CC1O (configuration not stated) | 28.2 |
| 4.8 |  | CC1(C)Oc2c(c3nc4c(nc3c3ccccc23)CCCC4)CC1O (configuration not stated) | 13.4 |
| 2.7 |  | CC1(C)OC2=C(CC1O)C(=O)c1ccccc1C2=O (configuration not stated) | 1.35 |
| 1.6 |  | CC(C)(O)C1CC2=C(O1)c1ccccc1C(=O)C2=O (configuration not stated) | 1.97 |
| 4.2 |  | CC(C)=CCC1=C2NC3CCCCC3N=C2c2ccccc2C1=O (configuration not stated) | 15.5 |
| 4.8 |  | CC1(C)Oc2c(c3nccnc3c3ccccc23)CC1Br (configuration not stated) | 24.1 |
| 2.5 |  | CC(C)(O)C1Cc2c(c3ccccc3c3nccnc23)O1 (configuration not stated) | 44.1 |
| 2.8 |  | CCOC1CCC2=C(O1)C(=O)c1ccccc1C2=O (configuration not stated) | 29.7 |
| 6.4 |  | CC1(C)CCc2c(c3ccccc3c3nc4c(nc23)CCCC4)O1 | ≥ 100 |
| 2.4 |  | CC(C)(O)C1CC(=O)c2nccnc2-c2ccccc2C(=O)O1 (configuration not stated) | > 100 |
| 3.9 |  | CC1(C)CCC(=O)c2nccnc2-c2ccccc2C(=O)O1 | 47.1 |
| 4.6 |  | CC1(C)CCC2=C(O1)c1ccccc1/C(=N/O)C2=O | 3.2 |
| 2.7 |  | CC(C)(O)C1Cc2c(O)c([N+](=O)[O-])c3ccccc3c2O1 (configuration not stated) | 47 |
| 3.4 |  | CC(C)(O[N+](=O)[O-])C1CC2=C(O1)C(=O)c1ccccc1C2=O (configuration not stated) | 1.24 |
| 2 |  | CC(C)(O)C1CC2=C(O1)C(=O)c1ccccc1C2=O (configuration not stated) | 1.85 |
| 5.7 |  | CC(=O)OC1Cc2c(c3ccccc3c3nc4c(nc23)CCCC4)OC1(C)C (configuration not stated) | 24.2 |
| 3.2 |  | CC(C)(Br)C1CC2=C(O1)c1ccccc1C(=O)C2=O (configuration not stated) | 0.7 |
| 4.2 |  | CC(C)(O)C1Cc2c(c3ccccc3c3nc4c(nc23)CCCC4)O1 (configuration not stated) | 31.9 |
| 4.7 |  | CC1(C)CCc2c(c3ccccc3c3nccnc23)O1 | 23.7 |
| 3.4 |  | C=C(C)C1CC2=C(O1)C(=O)c1ccccc1C2=O (stereo not drawn) [DEHYDROISO-ALPHA-LAPACHONE] | 1.46 |

Continued, compound first:

| SMILES | logP ([1]; read-out: LogP) | logP [1] | IC50 (HL-60) [µM] |
| --- | --- | --- | --- |
| CC(C)CCC1=C(O)C(=O)c2ccccc2C1=O | 4.1 |  | 62.1 |
| CC(=O)OC1CC2=C(OC1(C)C)c1ccccc1C(=O)C2=O (configuration not stated) | 3 |  | 0.68 |
| CC1(C)OC2=C(CC1Br)C(=O)C(=O)c1ccccc12 (configuration not stated) | 3.6 |  | 0.13 |
| CC1(C)OC2=C(C=C1Br)C(=O)C(=O)c1ccccc12 | 3.5 |  | 0.2 |
| CC1(C)OC2=C(C(=O)C(=O)c3ccccc32)C(O)C1Br (configuration not stated) | 3.1 |  | 0.12 |
| CC1(C)C[C@H](O)C2=C(O1)c1ccccc1C(=O)C2=O | 2.2 |  | 0.57 |
| CO[C@@H](C(=O)O[C@@H]1CC2=C(OC1(C)C)c1ccccc1C(=O)C2=O)c1ccccc1 | 5 |  | 0.26 |
| CC(C)=CCC1=C(O[Si](C)(C)C(C)(C)C)C(=O)c2ccccc2C1=O | 7.3 |  | 11.4 |
| CC1(C)OC2=C(CC1Br)C(=O)c1ccccc1C2=O (configuration not stated) | 4.1 |  | 1.36 |
| COc1cc(C(=O)OC2=C(CC=C(C)C)C(=O)c3ccccc3C2=O)cc(OC)c1OC | 6.3 |  | 8.06 |
| CC(=O)OC1=C(CC=C(C)C)C(=O)c2ccccc2C1=O | 4.5 |  | 4.51 |
| CC(=O)OC1=C(CC(O)C(C)(C)O)C(=O)c2ccccc2C1=O (configuration not stated) | 1.8 |  | 48.1 |
| CC(C)CCC1=C(O)C(=O)C2=C(CCCC2)C1=O | 4.2 |  | 34.6 |
| COCOC1=C(CCC(C)C)C(=O)c2ccccc2C1=O | 4.4 |  | 53.9 |
| CC(=O)OC1=C(CC2OC2(C)C)C(=O)c2ccccc2C1=O (configuration not stated) | 3 |  | 1.89 |
| CC(=O)OC1=C(CC(Br)C(C)(C)Br)C(=O)c2ccccc2C1=O (configuration not stated) | 5.1 |  | 2.23 |

| SMILES | logP ([1]; read-out: LogP) | logP [1] | IC50 (HL-60) [µM] |
| --- | --- | --- | --- |
| CO[C@@H](C(=O)O[C@H]1CC2=C(OC1(C)C)c1ccccc1C(=O)C2=O)c1ccccc1 | 5 |  | 0.11 |
| CC(C)C(=O)OC1CC2=C(OC1(C)C)c1ccccc1C(=O)C2=O (configuration not stated) | 3.8 |  | 0.24 |
| O=C1C2=C(OC(c3ccccc3)C2)C(=O)c2ccccc21 (configuration not stated) | 3.7 |  | 2.65 |
| Cc1ccc(CC2=C(O)C(=O)c3ccccc3C2=O)o1 | 3.6 |  | 68.2 |
| O=C1C2=C(OC(c3ccccc3)CC2)C(=O)c2ccccc21 (configuration not stated) | 4.7 |  | 22.9 |
| CC(=O)OC1=C(CC(Br)C(C)(C)O)C(=O)c2ccccc2C1=O (configuration not stated) | 3.5 |  | 0.52 |
| CC(C)=CC1=C(O)C(=O)c2ccccc2C1=O | 3.2 |  | 27.7 |
| CCCCCCCCCCCC(=O)OC1=C(CC=C(C)C)C(=O)c2ccccc2C1=O |  | 9.9 | 26.3 |
| CC1(C)C[C@@H](O)C2=C(O1)c1ccccc1C(=O)C2=O | 2.2 |  | 0.55 |
| CCCCCCCCCCCC(=O)OC1CC2=C(OC1(C)C)c1ccccc1C(=O)C2=O (configuration not stated) | 8.3 |  | 0.26 |
| CC1(C)OC2=C(CC1OC(=O)c1ccc(C#N)cc1)C(=O)C(=O)c1ccccc12 (racemic) | 4.7 |  | 0.13 |
| CC1(C)OC2=C(CC1OC(=O)c1ccc(Br)cc1)C(=O)C(=O)c1ccccc12 (racemic) | 5.8 |  | 0.45 |
| CC1(C)CCC2=C(O1)C(=O)c1ccccc1C2=O [ALPHA-LAPACHONE] | 3.5 |  | 13.5 |
| CC(C)=CCC1=C(O)C(=O)c2ccccc2C1=O [LAPACHOL] | 4.1 |  | 3.18 |
| CC1(C)CCC2=C(O1)c1ccccc1C(=O)C2=O [LAPACHONE] | 3.2 |  | 0.27 |
